{
  "source": "patent US5541094A",
  "about": "“Glyoxylic acid/aminomethylphosphonic acid mixtures prepared using a microbial transformant” (E. I. du Pont de Nemours and Company, priority 1994, dated 1996)",
  "origin": "cited, not measured here",
  "tested_on": "glycolate oxidase",
  "conditions": "100 mM; enzyme extracted from tobacco leaves",
  "data": [
    {"molecule": "O=C(O)C(=O)O", "note": "[Oxalic acid]", "values": [
      {"measurement": "inhibition of the catalytic action of the glycolate oxidase", "value": "inhibit the catalytic action of the glycolate oxidase"}
    ]}
  ]
}
